# Measurements reported in ChEMBL document CHEMBL5543071, “Benzopyran hydrazones with dual PPARα/γ or PPARα/δ agonism and an anti-inflammatory effect on human THP-1 macrophages” (Eur J Med Chem, 2024).
# pEC50: −log10 of the molar value.
# Experiments:
# THP-1 [1] = assay: Cytotoxicity against human THP-1 cells assessed as reduction in cell viability at 10 to 30 uM incubated for 72 hrs; format: toxicity, cell-based; conditions: thp-1, 72 h, dose 10-30 µM
# THP-1 [2] = assay: Cytotoxicity against human THP-1 cells assessed as reduction in cell viability at 100 uM incubated for 72 hrs; format: toxicity, cell-based; conditions: thp-1, 72 h
# [3] = biological target: T1, Peroxisome proliferator-activated receptor gamma (Homo sapiens, UniProt P37231); format: cell-based, COS7
# T1 sequence (P37231 whole entry): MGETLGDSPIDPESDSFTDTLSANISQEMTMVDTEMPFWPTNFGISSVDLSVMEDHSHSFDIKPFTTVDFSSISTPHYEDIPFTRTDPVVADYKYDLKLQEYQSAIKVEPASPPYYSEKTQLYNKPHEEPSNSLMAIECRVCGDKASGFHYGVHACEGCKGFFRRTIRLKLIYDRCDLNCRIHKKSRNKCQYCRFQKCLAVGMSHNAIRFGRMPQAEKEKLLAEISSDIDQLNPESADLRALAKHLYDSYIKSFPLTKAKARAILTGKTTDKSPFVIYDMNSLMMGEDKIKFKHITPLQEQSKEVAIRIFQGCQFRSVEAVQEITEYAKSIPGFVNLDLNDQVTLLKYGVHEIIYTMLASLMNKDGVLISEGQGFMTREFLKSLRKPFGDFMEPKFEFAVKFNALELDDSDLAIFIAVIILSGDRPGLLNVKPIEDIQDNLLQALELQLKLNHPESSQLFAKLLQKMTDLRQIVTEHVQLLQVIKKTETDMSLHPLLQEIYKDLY
# Description: Agonist activity at human PPARgamma transfected in african green monkey COS7 cells assessed transcriptional activation incubated for 24 hrs by luciferase assay
Structure (SMILES),Activity (THP-1 [1]),Activity (THP-1 [2]),pEC50 [3]
C/C(=C\CCC1(C)CCc2cc(OCc3ccc(F)cc3)ccc2O1)CC/C=N/Nc1ncc(Cl)cc1C(F)(F)F (stereo not given),Non-Toxic,,
CC1(CC/C=N/Nc2nc3ccccc3s2)CCc2cc(OCc3ccc(F)cc3)ccc2O1 (stereo not given),Non-Toxic,,
CC1(CC/C=N/Nc2ncc(Cl)cc2C(F)(F)F)CCc2cc(OCc3ccc(F)cc3)ccc2O1 (stereo not given),Non-Toxic,Toxic,5.26
